Laboratory results taken from US7915292B2, “Antibacterial quinoline derivatives” (Janssen Pharmaceutica NV, priority 2005, dated 2011).

Test system: M. Smegmatis ATCC607
Assay: In-vitro anti-bacterial activity against strain M. smegmatis ATCC607 (Alamar Blue growth inhibition)
Assay type: cell-based
Details: 48 hours incubation; for IC50: Mycolicibacterium smegmatis, read-out: M. smegmatis pIC50 (converted)
Protocol: Serial five-fold dilutions (45 μl in 180 μl) were made directly in the microtiter plates from column 2 to 11 using a customised robot system (Zymark Corp., Hopkinton, Mass.). Pipette tips were changed after every 3 dilutions to minimize pipetting errors with high hydrophobic compounds. Untreated control samples with (column 1) and without (column 12) inoculum were included in each microtiter plate. Approximately 250 CFU per well of bacteria inoculum, in a volume of 100 μl in 2.8× Mueller-Hinton broth medium, was added to the rows […]. The same volume of broth medium without inoculum was added to column 12 in row A to H. The cultures were incubated at 37° C. for 48 hours in a humidified 5% CO2 atmosphere (incubator with open air valve and continuous ventilation). At the end of incubation, two days after inoculation, the bacterial growth was quantitated fluorometrically. Therefore Alamar Blue (10×) was added to all wells in a volume of 20 μl and plates were incubated for another 2 hours at […] The fluorescence was read in a computer-controlled fluorometer (Cytofluor, Biosearch) at an excitation wavelength of 530 nm and an emission wavelength of 590 nm (gain 30). The percentage growth inhibition achieved by the compounds was calculated according to standard methods and expressed as pIC50 values.

CCOC(=O)CN(Cc1ccccc1)C(c1cccnc1)c1cc2ccccc2nc1-c1ccccc1 (centres unmarked) [Compound 129] gave an IC50 of 1580 nM.
With COc1nc2ccc(Br)cc2cc1C(c1ccccc1)N(C)CC(=O)N1CCCN(C)CC1 (centres unmarked) [Compound 84] the “M. smegmatis pIC50” value was 5.1.
In the case of COc1nc2ccc(Br)cc2cc1C(c1ccccc1)N(C)CC(=O)N(C)CCN(C)C (centres unmarked) [Compound 8], the “M. smegmatis pIC50” value is reported as 5.1.
With Cc1ccc2nc(-c3ccccc3)c(C(c3ccccc3)N(C)CC(=O)N3CCOCC3)cc2c1 (centres unmarked) [Compound 63] the “M. smegmatis pIC50” value was 5.1.
For CCN(CC)CCN(C)C(c1ccccc1)c1cc2cc(Br)ccc2nc1OC (centres unmarked) [Compound 2], the IC50 was 2000 nM.
In the case of COc1nc2ccc(Br)cc2cc1C(c1ccccc1)N(C)CC(=O)N1CC(C)OC(C)C1 (centres unmarked) [Compound 87], the “M. smegmatis pIC50” value is reported as 5.1.
COc1nc2ccc(Br)cc2cc1C(c1ccccc1)N(C)CC(=O)N(C)CCCN(C)C (centres unmarked) [Compound 9] was tested, and the “M. smegmatis pIC50” value was 5.
CC(C)N(C)C(=O)CN(Cc1ccccc1)C(c1ccccc1)c1cc2cc(Br)ccc2nc1Oc1ccccc1 (centres unmarked) [Compound 30] showed an IC50 of 631 nM.
With COc1nc2ccc(Br)cc2cc1C(c1ccccc1)N(C)CC(=O)N(C)C(C)C (centres unmarked) [Compound 5] the “M. smegmatis pIC50” value was 5.1.
For COc1nc2ccc(Br)cc2cc1C(c1ccccc1)N(CC(=O)N(C)C)Cc1ccccc1 (centres unmarked) [Compound 24], the “M. smegmatis pIC50” value was 5.1.
For CNC(=O)CN(Cc1ccccc1)C(c1ccccc1)c1cc2cc(C)ccc2nc1-c1ccccc1 (centres unmarked) [Compound 40], the “M. smegmatis pIC50” value was 5.6.
COc1nc2ccc(Br)cc2cc1C(c1ccccc1)N(C)CC(=O)N(C)c1ccccc1C (centres unmarked) [Compound 10] was tested, and the “M. smegmatis pIC50” value was 4.7.
Cc1ccc2nc(-c3ccccc3)c(C(c3ccccc3)N(C)CCN(C)C)cc2c1 (centres unmarked) [Compound 37] gave an IC50 of 20000 nM.
In the case of COc1nc2ccc(Br)cc2cc1C(c1ccccc1)[N+]([O-])(CC(=O)N1CCOCC1)Cc1ccccc1 (centres unmarked) [Compound 154], the IC50 is reported as 3980 nM.
For O=C(CN(Cc1ccccc1)C(c1cc2ccccc2o1)c1cc2ccccc2nc1-c1ccccc1)N1CCCC1 (centres unmarked) [Compound 57], the “M. smegmatis pIC50” value was 5.9.
COc1nc2ccc(Br)cc2cc1C(c1ccccc1)N(CC(=O)N1CCOCC1)Cc1ccnc2ccccc12 (centres unmarked) [Compound 118] was tested, and the “M. smegmatis pIC50” value was 5.6.
COc1nc2ccc(Br)cc2cc1C(c1ccccc1)N(CCCN(C)C)CCCN(C)C (centres unmarked) [Compound 28] was tested, and the “M. smegmatis pIC50” value was 5.1.
With COc1nc2ccc(Br)cc2cc1C(c1ccccc1)N(C)CC(=O)N(CCC#N)Cc1cccnc1 (centres unmarked) [Compound 14] the “M. smegmatis pIC50” value was 5.2.
For COc1nc2ccc(Br)cc2cc1C(c1ccccc1)N(C)CC(=O)N1CCOCC1 (centres unmarked) [Compound 86], the “M. smegmatis pIC50” value was 4.9.
With CCOC(=O)CN(Cc1ccoc1)C(c1ccccc1)c1cc2cc(Br)ccc2nc1OC (centres unmarked) [Compound 136] the “M. smegmatis pIC50” value was 4.4.
In the case of COc1nc2ccc(Br)cc2cc1C(c1ccccc1)N(C)CC(=O)N1CC=CCC1 (centres unmarked) [Compound 85], the “M. smegmatis pIC50” value is reported as 5.1.
In the case of COc1nc2ccc(Br)cc2cc1C(c1ccccc1)N(C)CC(=O)N1CCC(C)CC1 (centres unmarked) [Compound 83], the IC50 is reported as 2510 nM.
In the case of COc1nc2ccc(Br)cc2cc1C(c1ccccc1)N(CC(=O)N(C)C)Cc1ccnc2ccccc12 (centres unmarked) [Compound 26], the “M. smegmatis pIC50” value is reported as 5.7.
In the case of O=C(CN(Cc1ccccc1)C(c1ccccc1)c1cc2ccccc2nc1-c1ccccc1)N1CCCCC1 (centres unmarked) [Compound 126], the “M. smegmatis pIC50” value is reported as 6.4.
COc1nc2ccc(Br)cc2cc1C(c1ccccc1)N(C)CC(=O)N1CCN(Cc2ccccc2)CC1 (centres unmarked) [Compound 91] was tested, and the “M. smegmatis pIC50” value was 4.1.
In the case of CN(C)C(=O)CN(Cc1ccccc1)C(c1ccccc1)c1cc2ccccc2nc1-c1ccccc1 (centres unmarked) [Compound 32], the “M. smegmatis pIC50” value is reported as 5.7.
For COCCN(CCOC)C(=O)CN(C)C(c1ccccc1)c1cc2cc(Br)ccc2nc1OC (centres unmarked) [Compound 13], the “M. smegmatis pIC50” value was 4.6.
In the case of COc1nc2ccc(Br)cc2cc1C(c1ccccc1)N(CC(=O)N1CCOCC1)Cc1cccc2ncccc12 (centres unmarked) [Compound 116], the “M. smegmatis pIC50” value is reported as 5.3.
For COc1nc2ccc(Br)cc2cc1C(c1ccccc1)N(CC(=O)N1CCSCC1)Cc1ccnc2ccccc12 (centres unmarked) [Compound 117], the “M. smegmatis pIC50” value was 4.3.
CCN(Cc1ccncc1)C(=O)CN(C)C(c1ccccc1)c1cc2cc(Br)ccc2nc1OC (centres unmarked) [Compound 12] was tested, and the “M. smegmatis pIC50” value was 5.1.
With Cc1ccc2nc(-c3ccccc3)c(C(c3ccccc3)N(C)CC(=O)N(C)C)cc2c1 (centres unmarked) [Compound 39] the “M. smegmatis pIC50” value was 4.5.
In the case of Cc1ccc2nc(-c3ccccc3)c(C(c3ccccc3)N(CC(=O)NC3CCCCC3)Cc3ccccc3)cc2c1 (centres unmarked) [Compound 43], the “M. smegmatis pIC50” value is reported as 5.2.
Cc1ccc2nc(-c3ccccc3)c(C(c3ccccc3)N(C)CC(=O)N3CCN(C)CC3)cc2c1 (centres unmarked) [Compound 62] was tested, and the “M. smegmatis pIC50” value was 5.1.
In the case of COc1nc2ccc(Br)cc2cc1C(c1ccccc1)N(C)CCN(C)C (centres unmarked) [Compound 1], the “M. smegmatis pIC50” value is reported as 5.1.
In the case of COc1nc2ccc(Br)cc2cc1C(c1ccccc1)N(C)CC(=O)N1CCCC1 (centres unmarked) [Compound 80], the “M. smegmatis pIC50” value is reported as 5.1.
For COc1nc2ccc(Br)cc2cc1C(c1ccccc1)N(CC(=O)N(C)C)Cc1cccc2ncccc12 (centres unmarked) [Compound 25], the “M. smegmatis pIC50” value was 5.4.
With COc1nc2ccc(Br)cc2cc1C(c1ccccc1)N(CC(=O)N1CCSCC1)Cc1cccc2ncccc12 (centres unmarked) [Compound 115] the “M. smegmatis pIC50” value was 4.8.
CN(C)C(=O)CN(Cc1ccccc1)C(c1cc2ccccc2o1)c1cc2ccccc2nc1-c1ccccc1 (centres unmarked) [Compound 35] was tested, and the “M. smegmatis pIC50” value was 5.6.
For COc1nc2ccc(Br)cc2cc1C(c1ccccc1)N(CC(=O)N1CCN(C)CC1)Cc1ccnc2ccccc12 (centres unmarked) [Compound 119], the “M. smegmatis pIC50” value was 5.5.
For Cc1ccc2nc(-c3ccccc3)c(C(c3ccccc3)N(CC(=O)NN3CCOCC3)Cc3ccccc3)cc2c1 (centres unmarked) [Compound 44], the “M. smegmatis pIC50” value was 5.1.
With Cc1ccc2nc(-c3ccccc3)c(C(c3ccccc3)N(CC(=O)NCC3CC3)Cc3ccccc3)cc2c1 (centres unmarked) [Compound 42] the “M. smegmatis pIC50” value was 5.8.
With COc1nc2ccc(C)cc2cc1C(c1ccccc1)N(CCC(=O)N1CCOCC1)Cc1ccccc1 (centres unmarked) [Compound 60] the “M. smegmatis pIC50” value was 5.3.
With COc1nc2ccc(Br)cc2cc1C(c1ccccc1)N(C)CCCN(C)C (centres unmarked) [Compound 27] the “M. smegmatis pIC50” value was 5.5.
COCCN(CCOC)C(=O)CN(Cc1ccccc1)C(c1ccccc1)c1cc2cc(C)ccc2nc1-c1ccccc1 (centres unmarked) [Compound 50] was tested, and the “M. smegmatis pIC50” value was 5.8.
With COc1nc2ccc(Br)cc2cc1C(c1ccccc1)N(C)CC(=O)N1CCSC1 (centres unmarked) [Compound 81] the “M. smegmatis pIC50” value was 5.
For COc1nc2ccc(Br)cc2cc1C(c1ccccc1)N(CC(=O)N1CCOCC1)C(C)C (centres unmarked) [Compound 98], the “M. smegmatis pIC50” value was 5.3.
In the case of CCCCN(C)C(=O)CN(C)C(c1ccccc1)c1cc2cc(Br)ccc2nc1OC (centres unmarked) [Compound 6], the “M. smegmatis pIC50” value is reported as 5.1.
With COc1nc2ccc(Br)cc2cc1C(c1ccccc1)N(C)CC(=O)N1Cc2ccccc2C1 (centres unmarked) [Compound 95] the “M. smegmatis pIC50” value was 4.9.
COc1nc2ccc(Br)cc2cc1C(c1ccccc1)N(C)CC(=O)N1CCN(c2ccccn2)CC1 (centres unmarked) [Compound 92] was tested, and the “M. smegmatis pIC50” value was 5.1.
O=C(CN(Cc1ccccc1)C(c1cccnc1)c1cc2ccccc2nc1-c1ccccc1)N1CCSCC1 (centres unmarked) [Compound 56] was tested, and the “M. smegmatis pIC50” value was 5.8.
With COc1nc2ccc(Br)cc2cc1C(c1ccccc1)N(C)CC(=O)N(C)C (centres unmarked) [Compound 4] the “M. smegmatis pIC50” value was 5.1.
With COc1nc2ccc(Br)cc2cc1C(c1ccccc1)N(C)CC(=O)N1CCN(C)CC1 (centres unmarked) [Compound 89] the “M. smegmatis pIC50” value was 5.
With CNC(=O)CN(C)C(c1ccccc1)c1cc2cc(C)ccc2nc1-c1ccccc1 (centres unmarked) [Compound 38] the “M. smegmatis pIC50” value was 4.5.
CC(C)N(C)C(=O)CN(Cc1ccccc1)C(c1cc2ccccc2o1)c1cc2ccccc2nc1-c1ccccc1 (centres unmarked) [Compound 36] gave an IC50 of 316 nM.
In the case of COc1nc2ccc(Br)cc2cc1C(c1ccccc1)N(CC(=O)N1CCSCC1)Cc1ccc2ccccc2n1 (centres unmarked) [Compound 113], the “M. smegmatis pIC50” value is reported as 4.5.
In the case of CC(C)N(C)C(=O)CN(Cc1ccccc1)C(c1ccccc1)c1cc2ccccc2nc1-c1ccccc1 (centres unmarked) [Compound 33], the “M. smegmatis pIC50” value is reported as 6.5.
In the case of COc1nc2ccc(Br)cc2cc1C(c1ccccc1)N(C)CC(=O)N(C)CC#N (centres unmarked) [Compound 7], the “M. smegmatis pIC50” value is reported as 4.9.
In the case of COc1nc2ccc(Br)cc2c(Cl)c1C(c1ccccc1)N(C)CC(=O)N1CCOCC1 (centres unmarked) [Compound 96], the “M. smegmatis pIC50” value is reported as 5.2.
In the case of COc1nc2ccc(Br)cc2cc1C(c1ccccc1)N(C)CC(=O)N1CCCCC1 (centres unmarked) [Compound 82], the “M. smegmatis pIC50” value is reported as 4.4.
With COc1nc2ccc(Br)cc2cc1C(c1ccccc1)N(CC(=O)N1CCOCC1)Cc1ccco1 (centres unmarked) [Compound 101] the “M. smegmatis pIC50” value was 4.9.
For CCOC(=O)CN(Cc1ccccn1)C(c1ccccc1)c1cc2cc(Br)ccc2nc1OC (centres unmarked) [Compound 139], the “M. smegmatis pIC50” value was 4.3.
O=C(CN(Cc1ccccc1)C(c1ccccc1)c1cc2ccccc2nc1-c1ccccc1)N1CCSCC1 (centres unmarked) [Compound 127] was tested, and the “M. smegmatis pIC50” value was 6.5.
